Entries after “also recorded” stand apart in the source; their conditions may differ.
Tests used:
[1] = system: global chromatin modifications in peritoneal subclone (A38Per), normal cells (HPDE, fibroblast) and local-regional PDACs; assay: Western blots of histone modifications, peritoneal subclone, normal cells and local-regional PDACs; format: cell-based, human
Experimental: Histones were acid extracted as described and western blots performed on 3.5 ug histones, which were checked by Ponceau stains prior to western blot to ensure equal loading. Densitometry was performed with ImageJ software. RNA was extracted with Trizol reagent (Life Technologies) and isopropanol precipitated. Genomic DNA was purified with MasterPure DNA extraction reagents (Epicenter). Immunohistochemistry, H&E staining, and immunofluorescence on formalin-fixed, paraffin-embedded (FFPE) tissue microarray sections (TMAs) were performed according to standard procedures.
RNAi experiments were performed with siRNA transfections (Oligofectamine, Life Technologies) using negative control siRNA (Sigma, SIC001) and pre-designed siRNA oligonucleotides against indicated genes in parallel (Sigma, PGD: SASI_Hs02 00334150, CDH2: SASI_Hs01_00153995, TOP2B: SASI_Hs02_00311874). siRNAs against mutant KRAS^G12V (CUACGCCAACAGCUCCAAC) (SEQ ID NO:1) were custom designed. Cells were incubated with siRNAs for 4 days after transfection and harvested. For drug treatments in 2-D, cells were grown to 70-80% confluency and treated for 3 days with 250 uM 6AN or DMSO negative control.

[2] = molecular target: T1, 6-phosphogluconate dehydrogenase (PGD) (Homo sapiens, UniProt P52209); assay: Steady state LC-HRMS metabolite profiling (glycolytic/PPP metabolites); format: cell-based
T1 construct: endogenous in cells; host or cells: low-passage rapid-autopsy PDAC cell lines (e.g. A38Lg, A38Per, A13 subclones)
T1 sequence (P52209 1-483): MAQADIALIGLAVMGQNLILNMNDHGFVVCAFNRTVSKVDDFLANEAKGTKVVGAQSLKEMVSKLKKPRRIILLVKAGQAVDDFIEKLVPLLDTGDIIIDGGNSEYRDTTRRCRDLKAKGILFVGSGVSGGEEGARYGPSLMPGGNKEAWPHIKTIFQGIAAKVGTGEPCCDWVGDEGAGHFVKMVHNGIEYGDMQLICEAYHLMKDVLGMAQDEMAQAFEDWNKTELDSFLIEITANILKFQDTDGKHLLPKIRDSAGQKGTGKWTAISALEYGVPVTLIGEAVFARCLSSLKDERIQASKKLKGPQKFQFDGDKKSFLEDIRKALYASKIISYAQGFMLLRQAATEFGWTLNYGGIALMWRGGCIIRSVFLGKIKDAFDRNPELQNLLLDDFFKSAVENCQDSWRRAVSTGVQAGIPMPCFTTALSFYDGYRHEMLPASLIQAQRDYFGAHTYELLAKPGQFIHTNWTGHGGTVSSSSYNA
Experimental: Tissue samples and cell lines were previously collected from PDAC patients by rapid autopsy, sequenced-validated, and monitored for mycoplasma as previously described. Low passage (2-17) rapid autopsy cell lines were cultured at 37° C. in DMEM with 10% fetal bovine serum (FBS, Gibco). For MTT assays, 15,000 cells/well were plated into 96 well plates in triplicate, treated 12 hours later, and assayed after 24 hr (glucose responses) or 6 days (chemotherapy) with CellTiter96 (Promega). For glucose response assays, nutrient-deplete DMEM (no glucose, glutamine, pyruvate, or serum) was used with addition of glucose as indicated. […] Cells were then washed with PBS, trypsinized, and viable cells counted with a hemocytometer. Glucose uptake and lactate secretion were measured with a YSI 7100 Bioanalyzer as described in the supplementary methods. […]
LC-HRMS Metabolite Profiling. LC-HRMS samples were prepared and analyzed as described in Liu et al. (Development and quantitative evaluation of a high-resolution metabolomics technology. Anal Chem 86, 2175-84 (2014)). […] Additional replicates were also included and counted at the end of the experiment for normalization. […] Pellets were reconstituted into a volume normalized to protein content (15 uL of 1:1 acetonitrile:methanol and 15 uL of water was used per 1 mg protein) and analyzed by LC-QE-MS. […]

[3] = system: distant metastatic subclones; assay: 3-D suspension tumorsphere assay, distant metastatic subclones; format: cell-based, human
Experimental: 3-D matrigel assays were adapted from Cheung et al. (Control of alveolar differentiation by the lineage transcription factors GATA6 and HOPX inhibits lung adenocarcinoma metastasis. Cancer Cell 23, 725-38 (2013)). Briefly, 2-D cultures were trypsinized into single cells, 4,000cells/mL were suspended and thoroughly mixed in ice-cold DMEM containing 5% matrigel (BD systems) and 2% FBS (+/−DMSO/6AN as needed), 500 ul plated in quadruplicate into 24 well ultra-low attachment plates, and incubated for at least 7 days to allow tumor growth. Well-formed tumors were then counted and representative photographs taken with an EVOS instrument. 3-D suspension tumorsphere assays were performed with 20,000 starting cells/well in ultra-low attachment 6 well plates as described, and tumors counted/photographed after at least 7 days of tumor growth.

## NC(=O)c1ccc(N)nc1 [6AN, 6-aminonicotinamide]
[1]; normal (HPDE, fibroblast) or local-regional PDAC samples
  histone modifications, western blot densitometry: minimal effects; also recorded: did not show such changes
[1]; peritoneal subclone A38Per
  effect on global chromatin modifications (western blots): no effect
[2]
  steady state levels of glucose and metabolites directly upstream of the PGD reaction (6PG, G1,5L): dramatically elevated; also recorded: greatly increased
  steady state levels of metabolites downstream of the PGD reaction: corresponding reductions
[3]
  tumor formation in 3-D suspension tumorsphere assays: selectively and strongly blocked tumor formation; also recorded: ablated tumor formation

Source: US11795510B2, “Identification of epigenomic reprogramming in cancer and uses thereof” (The Johns Hopkins University, priority 2016, dated 2023)
